This is an account of results in ChEMBL document CHEMBL6087454, “Identification of Novel Organo-Se BTSA-Based Derivatives as Potent, Reversible, and Selective PPARγ Covalent Modulators for Antidiabetic Drug Discovery” (J Med Chem, 2025).

Series [1] is described as follows: Toxicity in male db/db mouse model assessed as effect on kidney morphology at 2.5 to 10 mg/kg/day, ip administered for 4 weeks. The format is organism-based. To be noted: in vivo, 672 h, dose 2.5-10 mg/kg/day.
For series [2], the system named is Mus musculus. In words: Antidiabetic activity in male db/db mouse model assessed as upregulation of adiponectin gene expression in liver at 2.5 to 10 mg/kg/day, ip administered for 4 weeks by RT-qPCR analysis. To be noted: dose 2.5-10 mg/kg/day. The format is functional, organism-based.
A short description of series [3]: Toxicity in male db/db mouse model assessed as increase in lipid accumulation in liver at 2.5 to 10 mg/kg/day, ip administered for 4 weeks by Oil red O staining based analysis. To be noted: in vivo, 672 h, dose 2.5-10 mg/kg/day. The format is organism-based.
Series [4] relates to Mus musculus. In words: Downregulation of PPAR-gamma protein expression in male db/db mouse white adipose tissue at 2.5 to 10 mg/kg/day, ip administered for 4 weeks by Western blotting analysis. The format is functional, organism-based. To be noted: dose 2.5-10 mg/kg/day.
Series [5] has as its system Mus musculus. Description: Antidiabetic activity in male db/db mouse model assessed as downregulation of FASN gene expression in liver at 2.5 to 10 mg/kg/day, ip administered for 4 weeks by RT-qPCR analysis. The format is functional, organism-based. To be noted: dose 2.5-10 mg/kg/day. For orientation: In qPCR the cycle at which signal appears reflects the starting amount.

Series [6] relates to Mus musculus. In words: Antidiabetic activity in male db/db mouse model assessed as upregulation of Glut4 gene expression in white adipose tissue at 2.5 to 10 mg/kg/day, ip administered for 4 weeks by RT-qPCR analysis. To be noted: dose 2.5-10 mg/kg/day. The format is functional, organism-based.
Series [7] can be described thus: Toxicity in male db/db mouse model assessed as increase in white adipocytes size at 2.5 to 10 mg/kg/day, ip administered for 4 weeks by H and E staining based analysis. The format is organism-based. Conditions: in vivo, 672 h, dose 2.5-10 mg/kg/day.
The subject of series [8] is Mus musculus. Description: Downregulation of PPAR-gamma protein expression in male db/db mouse liver at 2.5 to 10 mg/kg/day, ip administered for 4 weeks by Western blotting analysis. The format is functional, organism-based. To be noted: dose 2.5-10 mg/kg/day. A general note: Immunoblotting shows a protein as a band on a membrane.
The test system of series [9] is Mus musculus. Description: Antidiabetic activity in male db/db mouse model assessed as reduction in fasting blood glucose level administered intraperitoneally for 4 weeks. The format is functional, organism-based. To be noted: dose 2.5-10 mg/kg/day, route ip.
For series [10], the target named is T1, Peroxisome proliferator-activated receptor gamma (Homo sapiens) (UniProt P37231).
T1 sequence (whole entry): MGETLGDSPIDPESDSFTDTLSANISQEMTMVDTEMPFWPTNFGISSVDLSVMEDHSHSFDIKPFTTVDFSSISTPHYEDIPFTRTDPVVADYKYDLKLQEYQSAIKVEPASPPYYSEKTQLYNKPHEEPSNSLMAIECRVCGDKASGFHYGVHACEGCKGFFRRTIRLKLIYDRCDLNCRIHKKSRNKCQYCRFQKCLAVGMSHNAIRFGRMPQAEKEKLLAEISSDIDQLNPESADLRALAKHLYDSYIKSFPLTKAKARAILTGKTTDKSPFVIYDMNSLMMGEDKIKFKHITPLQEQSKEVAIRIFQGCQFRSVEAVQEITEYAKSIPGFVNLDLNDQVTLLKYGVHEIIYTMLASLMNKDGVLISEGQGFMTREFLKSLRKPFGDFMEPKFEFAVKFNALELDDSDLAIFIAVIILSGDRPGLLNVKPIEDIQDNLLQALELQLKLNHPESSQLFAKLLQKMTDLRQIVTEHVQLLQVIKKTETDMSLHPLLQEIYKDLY
In words: Covalent binding affinity to recombinant PPAR-gamma ligand binding domain (unknown origin) incubated for 30 mins by high-performance liquid chromatography Fourier transform mass spectrometric analysis. Conditions: filed as partial agonist.

Series [11] concerns Mus musculus. Description: Effect on pRb protein expression in male db/db mouse white adipose tissue at 2.5 to 10 mg/kg/day, ip administered for 4 weeks by Western blotting analysis. The format is functional, organism-based. To be noted: dose 2.5-10 mg/kg/day.
For series [12], the system named is 3T3-L1. Description: Inhibition of adipogenesis in mouse 3T3-L1 cells assessed as downregulation of CD36 gene expression at 1 uM measured after 48 hrs by RT-qPCR analysis. The format is functional, cell-based.
Series [13] can be described thus: Toxicity in male db/db mouse model assessed as increase in brown adipose tissue weight at 2.5 to 10 mg/kg/day, ip administered for 4 weeks. The format is organism-based. Conditions: in vivo, 672 h, dose 2.5-10 mg/kg/day.
Series [14] concerns Mus musculus. Description: Antidiabetic activity in male db/db mouse model assessed as decrease in PDK4 protein abundance in liver at 2.5 to 10 mg/kg/day, ip administered for 4 weeks by Western blotting analysis. The format is functional, organism-based. Conditions: dose 2.5-10 mg/kg/day.
For series [15], the system named is Mus musculus. Description: Antidiabetic activity in male db/db mouse model assessed as downregulation of LPL gene expression in white adipose tissue at 2.5 to 10 mg/kg/day, ip administered for 4 weeks by RT-qPCR analysis. The format is functional, organism-based. Conditions: dose 2.5-10 mg/kg/day.
In series [16] the test system is Mus musculus. In words: Effect on cdk5 protein expression in male db/db mouse liver at 2.5 to 10 mg/kg/day, ip administered for 4 weeks by Western blotting analysis. The format is functional, organism-based. Conditions: dose 2.5-10 mg/kg/day.
In series [17] the target is T2, Peroxisome proliferator-activated receptor alpha (Homo sapiens) (UniProt Q07869).
T2 sequence (whole entry): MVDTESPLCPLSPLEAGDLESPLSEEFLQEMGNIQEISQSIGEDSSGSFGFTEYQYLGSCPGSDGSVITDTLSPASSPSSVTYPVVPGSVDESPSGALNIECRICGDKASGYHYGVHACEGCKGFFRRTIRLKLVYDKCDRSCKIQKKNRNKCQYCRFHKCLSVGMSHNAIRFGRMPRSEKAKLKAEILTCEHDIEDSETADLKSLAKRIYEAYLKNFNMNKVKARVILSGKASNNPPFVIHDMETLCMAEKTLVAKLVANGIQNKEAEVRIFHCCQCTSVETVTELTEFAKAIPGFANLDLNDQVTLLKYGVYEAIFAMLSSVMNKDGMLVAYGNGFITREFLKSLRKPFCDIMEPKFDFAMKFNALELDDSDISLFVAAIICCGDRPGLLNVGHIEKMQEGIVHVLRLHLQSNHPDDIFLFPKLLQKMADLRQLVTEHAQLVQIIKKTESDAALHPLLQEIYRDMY
In words: Binding affinity to PPAR-alpha (unknown origin) at 0.5 uM in presence of fluormone pan-PPAR green tracer by TR-FRET assay. (In general: Time-resolved FRET reads energy transfer from a long-lived donor to a nearby acceptor.)

Series [18] relates to Mus musculus. In words: Antidiabetic activity in male db/db mouse model assessed as increase in ANGPTL4 protein abundance in white adipose tissue at 2.5 to 10 mg/kg/day, ip administered for 4 weeks by Western blotting analysis. The format is functional, organism-based. To be noted: dose 2.5-10 mg/kg/day.
Series [19] has as its system 3T3-L1. In words: Insulin sensitizing activity in mouse 3T3-L1 cells assessed as downregulation of SOCS3 gene expression at 1 uM measured after 48 hrs by RT-qPCR analysis. The format is functional, cell-based.
Series [20] can be described thus: Toxicity in male db/db mouse model assessed as body weight gain at 2.5 to 10 mg/kg/day, ip administered for 4 weeks. The format is organism-based. Conditions: in vivo, 672 h, dose 2.5-10 mg/kg/day.
For series [21], the system named is Mus musculus. In words: Antidiabetic activity in male db/db mouse model assessed as decrease in serum insulin level at 2.5 to 10 mg/kg/day, ip preadministered for 4 weeks followed by glucose administration after 4 to 6 hrs of fasting and measured after 120 mins by intraperitoneal insulin tolerance test. The format is functional, organism-based. To be noted: dose 2.5-10 mg/kg/day.

Series [22] concerns 3T3-L1. In words: Insulin sensitizing activity in mouse 3T3-L1 cells assessed as downregulation of PTP1B gene expression at 1 uM measured after 48 hrs by RT-qPCR analysis. The format is functional, cell-based.
Series [23] is described as follows: Toxicity in male db/db mouse model assessed as effect on liver weight at 2.5 to 5 mg/kg, ip administered for 4 weeks. To be noted: in vivo, 672 h, dose 2.5-5 mg/kg. The format is organism-based.
In series [24] the test system is Mus musculus. Description: Antidiabetic activity in male db/db mouse model assessed as downregulation of LPL gene expression in liver at 2.5 to 10 mg/kg/day, ip administered for 4 weeks by RT-qPCR analysis. The format is functional, organism-based. To be noted: dose 2.5-10 mg/kg/day.

Activity calls are given as the source filed them. The calls are words filed in the database; no cut-off is given here.

As for `Cc1ccc(S(=O)(=O)Oc2ccc(S3(=O)=N[Se]c4cc(OS(=O)(=O)c5ccc(C)cc5)ccc43)cc2)cc1` (centres undefined), the Activity entry was “Non-toxic” in series [1]; “Non-toxic” in [3]; “Non-toxic” in series [7]; “Dose-dependent-effect” in series [9]; “Active; Mass Change Of 633.50 Da For Ppargamma-Lbd Observed” in series [10]; “Non-toxic” in [13]. The Activity entry in series [20] and in [23] was “Non-toxic” each time. Besides, the result in [2], in series [4], in [5], in series [6], in series [14] and in series [15] was Active. For the same compound, the outcome in series [18], in series [19], in series [21], in series [22] and in series [24] was Active. Further, the result in series [8], in series [11], in series [16] and in series [17] was inactive. Further, the inhibition entry in series [12] was “Active”.
